{"source": "patent EP1359152B1", "about": "“Diazabicyclic derivatives as nicotinic acetylcholine receptor ligands” (ABBOTT LABORATORIES, priority 1999, dated 2000)", "note": "Structures can show the parent of a compound that is named as a salt."}
{"target": "T1, neuronal nicotinic acetylcholine receptors (Rattus norvegicus, UniProt P09483+P12390)", "T1 construct": "crude synaptic membrane preparations from whole rat brain; from tissue; host or cells: whole rat brain, crude synaptic membranes", "T1 sequence (P09483 31-630)": "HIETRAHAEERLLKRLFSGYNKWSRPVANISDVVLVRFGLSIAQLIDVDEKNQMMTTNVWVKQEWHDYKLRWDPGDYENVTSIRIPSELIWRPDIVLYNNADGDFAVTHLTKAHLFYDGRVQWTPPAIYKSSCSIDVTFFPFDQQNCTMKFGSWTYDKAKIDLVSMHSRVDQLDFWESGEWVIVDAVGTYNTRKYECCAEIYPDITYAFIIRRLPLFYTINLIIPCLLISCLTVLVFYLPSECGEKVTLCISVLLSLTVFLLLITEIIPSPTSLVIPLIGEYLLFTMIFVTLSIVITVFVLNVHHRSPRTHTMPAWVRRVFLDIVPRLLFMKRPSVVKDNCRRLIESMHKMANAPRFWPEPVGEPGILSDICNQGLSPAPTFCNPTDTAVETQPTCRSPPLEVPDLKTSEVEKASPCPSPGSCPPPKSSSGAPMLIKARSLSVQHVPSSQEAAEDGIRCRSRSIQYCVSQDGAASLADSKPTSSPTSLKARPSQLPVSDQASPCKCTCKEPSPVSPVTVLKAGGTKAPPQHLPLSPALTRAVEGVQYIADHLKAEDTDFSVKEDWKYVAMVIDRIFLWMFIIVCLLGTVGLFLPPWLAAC", "T1 sequence (P12390 25-500)": "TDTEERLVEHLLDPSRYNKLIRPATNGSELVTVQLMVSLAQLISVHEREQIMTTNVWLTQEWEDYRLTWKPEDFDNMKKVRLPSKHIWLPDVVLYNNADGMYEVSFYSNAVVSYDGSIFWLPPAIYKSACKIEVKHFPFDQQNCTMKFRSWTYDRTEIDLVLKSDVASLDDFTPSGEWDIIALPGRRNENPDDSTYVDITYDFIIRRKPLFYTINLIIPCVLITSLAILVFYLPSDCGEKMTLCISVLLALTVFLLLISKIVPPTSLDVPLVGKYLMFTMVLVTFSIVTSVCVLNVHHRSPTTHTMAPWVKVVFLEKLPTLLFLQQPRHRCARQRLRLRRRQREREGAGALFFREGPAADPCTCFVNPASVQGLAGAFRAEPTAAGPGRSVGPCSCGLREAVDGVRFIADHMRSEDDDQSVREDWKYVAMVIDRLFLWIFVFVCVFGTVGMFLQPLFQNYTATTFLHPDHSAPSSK", "experiment": "[3H]-cytisine binding to neuronal nicotinic acetylcholine receptors, crude synaptic membranes from whole rat brain", "details": "not given", "method": "(§1) The In Vitro protocols for determination of nicotinic acetylcholine channel receptor binding potencies of ligands were determined as follows.\n(§2) Washed membranes were stored at-80 °C prior to use. Frozen aliquots were slowly thawed and resuspended in 20 volumes of buffer (containing: 120 mM NaCl, 5 mM KCI, 2 mM MgCl2, 2 mM CaCl2 and 50 mM Tris-Cl, pH 7.4 @4 °C). After centrifuging at 20,000x g for 15 minutes, the pellets were resuspended in 30 volumes of buffer.\n(§3) The test compounds were dissolved in water to make 10 mM stock solutions. Each solution was then diluted (1:100) with buffer (as above) and further taken through seven serial log dilutions to produce test solutions from 10^-5 to 10^-11 M.\n(§4) Samples were incubated for 60 minutes at 4 °C, then rapidly filtered through Whatman GF/B filters presoaked in 0.5% polyethyleneimine using 3 x 4 mL of ice-cold buffer. The filters are counted in 4 mL of Ecolume® (ICN). Nonspecific binding was determined in the presence of 10 µM (-)-nicotine and values were expressed as a percentage of total binding. IC50 values were determined with the RS-1 (BBN) nonlinear least squares curve-fitting program and IC50 values were converted to Ki values using the Cheng and Prusoff correction (Ki=IC50/(1+[ligand]/Kd of ligand).", "units": {"Ki": "nM"}}
{"smiles": "Clc1ccc(N2C[C@@H]3C[C@H]2CN3)cn1", "note": "[Example 1, (1S,4S)-2-(6-chloro-3-pyridinyl)-2,5-diazabicyclo[2,2,1]heptane 4-methylbenzenesulfonate]", "Ki": 0.041}
{"smiles": "Nc1ccc(N2C[C@@H]3C[C@H]2CN3)cn1", "note": "[Example 3, (1S,4S)-2-(6-amino-3-pyridinyl)-2,5-diazabicyclo[2.2.1]heptane trihydrochloride]", "Ki": 20}
{"smiles": "Cc1cc(N2C[C@@H]3C[C@H]2CN3)nnc1Cl", "note": "[Example 4, (1S,4S)-2-(6-chloro-5-methyl-3-pyridazinyl)-2,5-diazabicyclo[2,2,1]heptane bis(4-methylbenzenesulfonate)]", "Ki": 3.8}
{"smiles": "Cc1cc(N2C[C@@H]3C[C@H]2CN3C)nnc1Cl", "note": "[Example 6, (1S,4S)-2-(6-chloro-5-methyl-3-pyridazinyl)-5-methyl-2,5-diazabicyclo[2.2.1]heptane bis(4-methylbenzenesulfonate)]", "Ki": 22}
{"smiles": "Clc1nnc(N2C[C@@H]3C[C@H]2CN3)c2ccccc12", "note": "[Example 7, (1S,4S)-2-(4-chloro-1-phthalazinyl)-2,5-diazabicyclo[2.2.1]heptane bis(4-methylbenzenesulfonate)]", "Ki": 1900}
{"smiles": "CN1C[C@@H]2C[C@H]1CN2c1nnc(Cl)c2ccccc12", "note": "[Example 8, (1S,4S)-2-(4-chloro-1-phthalazinyl)-5-methyl-2,5-diazabicyclo[2.2.1]heptane bis(4-methylbenzenesulfonate)]", "Ki": 2600}
{"smiles": "COC(=O)c1cc(N2C[C@@H]3C[C@H]2CN3)nnc1Cl", "note": "[Example 9, (1S,4S)-2-(6-chloro-5-methoxycarbonyl-3-pyridazinyl)-2,5-diazabicyclo[2.2.1]heptane bis(4-methylbenzenesulfonate)]", "Ki": "> 10000"}
{"smiles": "O=[N+]([O-])c1ccc(N2CC3CCC(C2)N3)cn1", "note": "[Example 10, 3-(6-nitro-3-pyrdinyl)-3,8-diazabicyclo[3.2.1]octane dihydrochloride]", "Ki": 37}
{"smiles": "Nc1ccc(N2CC3CCC(C2)N3)cn1", "note": "[Example 11, 3-(6-amino-3-pyridinyl)-3,8-diazabicyclo[3.2.1]octane trihydrochloride]", "Ki": 37}
{"smiles": "Clc1ccc(N2CC3CCC(C2)N3)cn1", "note": "[Example 12, 3-(6-chloro-3-pyridinyl)-3,8-diazabicyclo[3.2.1]octane dihydrochloride]", "Ki": 93}
{"smiles": "c1cncc(N2CC3CCC(C2)N3)c1", "note": "[Example 13, 3-(3-pyridinyl)-3,8-diazabicyclo[3.2.1]octane dihydrochloride]", "Ki": 0.41}
{"smiles": "c1cnnc(N2CC3CCC(C2)N3)c1", "note": "[Example 14, 3-(3-pyridazinyl)-3,8-diazabicyclo[3.2.1]octane dihydrochloride]", "Ki": 11}
{"smiles": "Clc1ccc(N2C[C@H]3C[C@@H]2CN3)cn1", "note": "[Example 15, (1R,4R)-2-(6-chloro-3-pyridinyl)-2,5-diazabicyclo[2.2.1]heptane 4-methylbenzenesulfonate]", "Ki": 0.01}
{"smiles": "c1cncc(N2C[C@@H]3C[C@H]2CN3)c1", "note": "[Example 17, (1S,4S)-2-(3-pyridinyl)-2,5-diazabicyclo[2.2.1]heptane 4-methylbenzenesulfonate]", "Ki": 0.063}
{"smiles": "Clc1ccc(N2C[C@@H]3C[C@H]2CN3)nc1", "note": "[Example 18, (1S,4S)-2-(5-chloro-2-pyridinyl)-2,5-diazabicyclo[2.2.1]heptane dihydrochloride, reference compound]", "Ki": 400}
{"smiles": "c1cncc(CN2C[C@H]3C[C@@H]2CN3)c1", "note": "[Example 20, (1R,4R)-2-(3-pyridinylmethyl)-2,5-diazabicyclo[2.2.1]heptane trihydrobromide]", "Ki": 52}
{"smiles": "c1ccc(COc2cncc(N3C[C@@H]4C[C@H]3CN4)c2)cc1", "note": "[Example 21, (1S,4S)-2-[5-(benzyloxy)-3-pyridinyl]-2,5-diazabicyclo[2.2.1]heptane 4-methylbenzenesulfonate]", "Ki": 0.33}
{"smiles": "Oc1cncc(N2C[C@@H]3C[C@H]2CN3)c1", "note": "[Example 22, (1S,4S)-2[5-hydroxy-3-pyridinyl]-2,5-diazabicyclo[2.2.1]heptane 4-methylbenzenesulfonate]", "Ki": 4.1}
{"smiles": "Cc1ccc(N2C[C@@H]3C[C@H]2CN3)cn1", "note": "[Example 23, (1S,4S)-2-(6-methyl-3-pyridinyl)-2,5-diazabicyclo[2.2.1]heptane 4-methylbenzenesulfonate]", "Ki": 1.6}
{"smiles": "c1cncc(N2C[C@H]3C[C@@H]2CN3)c1", "note": "[Example 24, (1R,4R)-2-(3-pyridinyl)-2,5-diazabicyclo[2.2.1]heptane 4-methylbenzenesulfonate]", "Ki": 0.012}
{"smiles": "c1cnnc(N2C[C@@H]3C[C@H]2CN3)c1", "note": "[Example 29, (1S,4S)-2-(3-pyridazinyl)-2,5-diazabicyclo[2.2.1]heptane 4-methylbenzenesulfonate]", "Ki": 37}
{"smiles": "N#Cc1cncc(N2C[C@@H]3C[C@H]2CN3)c1", "note": "[Example 32, (1S,4S)-2-(5-cyano-3-pyridinyl)-2,5-diazabicyclo[2.2.1]heptane 4-methylbenzenesulfonate]", "Ki": 1.6}
{"smiles": "NCc1cncc(N2C[C@@H]3C[C@H]2CN3)c1", "note": "[Example 34, (1S,4S)-2-(5-aminomethyl-3-pyridinyl)-2,5-diazabicyclo[2.2.1]heptane trihydrochloride]", "Ki": 140}
{"smiles": "COc1cncc(N2C[C@@H]3C[C@H]2CN3)c1", "note": "[Example 43, (1S,4S)-2-(5-methoxy-3-pyridinyl)-2,5-diazabicyclo[2.2.1]heptane bis(4-methylbenzenesulfonate)]", "Ki": 0.57}
{"smiles": "Oc1cc(N2C[C@@H]3C[C@H]2CN3)cnc1Cl", "note": "[Example 45, (1S,4S)-2-(6-chloro-5-hydroxy-3-pyridinyl)-2,5-diazabicyclo[2.2.1]heptane 4-methylbenzenesulfonate]", "Ki": 1.6}
{"smiles": "Clc1ccc(N2CC3CC2CCN3)cn1", "note": "(centres unmarked) [Example 49, 6-(6-chloro-3-pyridinyl)-2,6-diazabicyclo[3.2.1]octane bis(4-methylbenzenesulfonate)]", "Ki": 2.7}
{"smiles": "COc1cc(N2C[C@H]3C[C@@H]2CN3)cnc1Cl", "note": "[Example 51, (1R,4R)-2-(6-chloro-5-methoxy-3-pyridinyl)-2,5-diazabicyclo[2.2.1]heptane 4-methylbenzenesulfonate]", "Ki": 0.1}
{"smiles": "c1ncc(N2C[C@@H]3C[C@H]2CN3)cn1", "note": "[Example 52, (1S,4S)-2-(5-pyrimidinyl)-2,5-diazabicyclo[2.2.1]heptane 4-methylbenzenesulfonate]", "Ki": 1}
{"smiles": "c1ccc2ncc(N3C[C@@H]4C[C@H]3CN4)cc2c1", "note": "[Example 53, (1S,4S)-2-(3-quinolinyl)-2,5-diazabicyclo[2.2.1]heptane acetate]", "Ki": 17}
{"smiles": "Cc1cc(N2C[C@@H]3C[C@H]2CN3)sn1", "note": "[Example 54, (1S,4S)-2-(3-methyl-5-isothiazolyl)-2.5-diazabicyclo[2.2.1]heptane acetate]", "Ki": 5}
{"smiles": "c1cnc2cc(N3C[C@H]4C[C@@H]3CN4)sc2c1", "note": "[Example 55, (1R,4R)-2-(thieno[3,2-b]pyridin-2-yl)-2,5-diazabicyclo[2.2.1]heptane acetate]", "Ki": 0.84}
{"smiles": "Clc1ccc(N2C3CCNCC2CC3)cn1", "note": "(centres unmarked) [Example 56, 9-(6-chloro-3-pyridinyl)-3,9-diazabicyclo[4.2.1]nonane fumarate]", "Ki": 0.21}
{"smiles": "c1cncc(N2CC3CNCC2C3)c1", "note": "(centres unmarked) [Example 59, 6-(3-pyridinyl)-3,6-diazabicyclo[3.2.1]octane]", "Ki": 2.2}
{"target": "T1, neuronal nicotinic acetylcholine receptors", "experiment": "[3H]-cytisine binding to neuronal nicotinic acetylcholine receptors, crude synaptic membranes from whole rat brain", "details": "[3H]-CYT 1.25 nM, 60 minutes at 4 °C, whole rat brain membranes; Ki from IC50 by Cheng and Prusoff correction; read-out: Average Ki", "method": "as §1, §2, §3, §4", "units": {"Ki": "nM"}}
{"smiles": "O=[N+]([O-])c1ccc(N2CC3CC2CN3)cn1", "note": "[Example 28, (1S,4S)-2-(6-nitro-3-pyridinyl)-2.5-diazabicyclo[2.2.1]heptane]", "Ki": 109}
{"smiles": "c1cncc(N2CC3CCC2CN3)c1", "note": "(centres unmarked) [Example 42, 2-(3-pyridinyl)-2.5-diazabicyclo[2.2.2]octane dihydrochloride]", "Ki": 0.02}
{"smiles": "NC(=O)c1cncc(N2CC3CC2CN3)c1", "note": "[Example 50, (1R,4R)-2-(5-aminocarbonyl-3-pyridinyl)-2.5-diazabicvclo[2.2.1]heptane bis(4-methylbenzenesulfonate)]", "Ki": 0.83}
{"tested_on": "mice", "experiment": "Mouse hot plate paradigm (analgesic effect, latency until tenth jump)", "type": "in vivo", "details": "ip, 0.5 h, minimally effective dose among doses tested, intraperitoneal, dosed 30 minutes prior to testing, hot plate 55 °C, cut-off 180 seconds, increase in tenth jump latency relative to control, read-out: (MED)", "method": "An in vivo protocol was utilized to determine the effectiveness of nicotinic acetylcholine receptor ligands as analgesic agents in the mouse hot plate paradigm.\nSeparate groups of mice, (n=8/group) were utilized for each dose group. All drugs were administered by the intraperitoneal route of administration. Test drugs were dissolved in water to make a 6.2 mM stock solution. Animals were dosed with this solution (10 mL/kg body weight) for a 62 micromol/kg dose. Lower doses were administered similarly, following serial dilution of the stock solution in half-log increments. Animals were dosed 30 minutes prior to testing in the hot plate. The hotplate utilized was an automated analgesia monitor (Model #AHP16AN, Omnitech Electronics, Inc. of Columbus, Ohio). The temperature of the hot plate was maintained at 55 °C and a cut-off time of 180 seconds was utilized. Latency until the tenth jump was recorded as the dependent measure. An increase in the tenth jump latency relative to the control was considered an effect.", "units": {"minimal effective dose": "µmol/kg"}}
{"smiles": "Clc1ccc(N2C[C@@H]3C[C@H]2CN3)cn1", "note": "[Example 1, (1S,4S)-2-(6-chloro-3-pyridinyl)-2,5-diazabicyclo[2,2,1]heptane 4-methylbenzenesulfonate]", "minimal effective dose": 6.2}
{"smiles": "Cc1cc(N2C[C@@H]3C[C@H]2CN3)nnc1Cl", "note": "[Example 4, (1S,4S)-2-(6-chloro-5-methyl-3-pyridazinyl)-2,5-diazabicyclo[2,2,1]heptane bis(4-methylbenzenesulfonate)]", "minimal effective dose": 62}
{"smiles": "Clc1ccc(N2C[C@H]3C[C@@H]2CN3)cn1", "note": "[Example 15, (1R,4R)-2-(6-chloro-3-pyridinyl)-2,5-diazabicyclo[2.2.1]heptane 4-methylbenzenesulfonate]", "minimal effective dose": 0.62}
{"smiles": "Clc1ccc(N2C[C@H]3C[C@@H]2CN3)nn1", "note": "[Example 16, (1R,4R)-2-(6-chloro-3-pyridazinyl)-2,5-diazabicyclo[2.2.1]heptane bis(4-methylbenzenesulfonate)]", "minimal effective dose": 6.2}
{"smiles": "c1cncc(CN2C[C@H]3C[C@@H]2CN3)c1", "note": "[Example 20, (1R,4R)-2-(3-pyridinylmethyl)-2,5-diazabicyclo[2.2.1]heptane trihydrobromide]", "minimal effective dose": 62}
{"smiles": "Oc1cncc(N2C[C@@H]3C[C@H]2CN3)c1", "note": "[Example 22, (1S,4S)-2[5-hydroxy-3-pyridinyl]-2,5-diazabicyclo[2.2.1]heptane 4-methylbenzenesulfonate]", "minimal effective dose": 19}
{"smiles": "Cc1ccc(N2C[C@@H]3C[C@H]2CN3)cn1", "note": "[Example 23, (1S,4S)-2-(6-methyl-3-pyridinyl)-2,5-diazabicyclo[2.2.1]heptane 4-methylbenzenesulfonate]", "minimal effective dose": 62}
{"smiles": "c1cncc(N2C[C@H]3C[C@@H]2CN3)c1", "note": "[Example 24, (1R,4R)-2-(3-pyridinyl)-2,5-diazabicyclo[2.2.1]heptane 4-methylbenzenesulfonate]", "minimal effective dose": 6.2}
